In ChEMBL document CHEMBL3875147 (Eur J Med Chem, 2016):
≈ marks a conversion by molar mass, not a printed value.

Experiments:
[1] = Hemolytic activity in human RBC at 100 uM measured after 1 hr by UV-vis absorbance method relative to control; type: ADME, cell-based, Erythrocyte; conditions: red blood cells (RBC), read-out: Activity
[2] = system: Plesiomonas shigelloides; test: Antibacterial activity against Plesiomonas shigelloides ATCC 14029 incubated for 18 to 24 hrs by micro-dilution method; type: functional
[3] = system: Escherichia coli; test: Antibacterial activity against Escherichia coli ATCC 25922 incubated for 18 to 24 hrs by micro-dilution method; type: functional
[4] = system: Staphylococcus epidermidis; test: Antibacterial activity against Staphylococcus epidermidis ATCC 35984 incubated for 18 to 24 hrs by micro-dilution method; type: functional; conditions: RP62A
[5] = system: Staphylococcus aureus; test: Antibacterial activity against Staphylococcus aureus ATCC 25923 incubated for 18 to 24 hrs by micro-dilution method; type: functional
[6] = Antibacterial activity against Aeromonas hydrophila ATCC 7966 incubated for 18 to 24 hrs by micro-dilution method; type: functional, Aeromonas hydrophila subsp. hydrophila ATCC 7966
[7] = system: Salmonella typhi; test: Antibacterial activity against clinical isolate of Salmonella typhi incubated for 18 to 24 hrs by micro-dilution method; type: functional, Salmonella enterica subsp. enterica serovar Typhi; conditions: Salmonella enterica
[8] = system: Salmonella typhimurium; test: Antibacterial activity against clinical isolate of Salmonella typhimurium incubated for 18 to 24 hrs by micro-dilution method; type: functional, Salmonella enterica subsp. enterica serovar Typhimurium; conditions: Salmonella enterica
[9] = system: Sphingomonas paucimobilis; test: Antibacterial activity against Sphingomonas paucimobilis MTCC 6362 incubated for 18 to 24 hrs by micro-dilution method; type: functional
[10] = system: Pseudomonas aeruginosa; test: Antibacterial activity against clinical isolate of Pseudomonas aeruginosa incubated for 18 to 24 hrs by micro-dilution method; type: functional
[11] = system: Pseudomonas aeruginosa; test: Antibacterial activity against Pseudomonas aeruginosa ATCC 27853 incubated for 18 to 24 hrs by micro-dilution method; type: functional
[12] = system: Enterococcus faecalis; test: Antibacterial activity against clinical isolate of Enterococcus faecalis incubated for 18 to 24 hrs by micro-dilution method; type: functional

Structure (SMILES)	hemolysis at 1 h, 100 µM [1] [%]	MIC [2] [µM]	MIC [3] [µM]	MIC [4] [µM]	MIC [5] [µM]	MIC [6] [µM]	MIC [7] [µM]	MIC [8] [µM]	MIC [9] [µM]	MIC [10] [µM]	MIC [11] [µM]	MIC [12] [µM]
CCc1ccc(-n2cc(COC(=O)c3cn(C4CC4)c4cc(N5CCN(Cc6cn(-c7ccc(CC)cc7)nn6)CC5)c(F)cc4c3=O)nn2)cc1	6.81	4.45 (≈ 3.12 µg/mL)	> 142	71.2 (≈ 50 µg/mL)	142 (≈ 100 µg/mL)	> 142	142 (≈ 100 µg/mL)	8.91 (≈ 6.25 µg/mL)	> 142	> 142	> 142	142 (≈ 100 µg/mL)
O=C(OCc1cn(-c2ccccc2)nn1)c1cn(C2CC2)c2cc(N3CCN(Cc4cn(-c5ccccc5)nn4)CC3)c(F)cc2c1=O	4.65	9.68 (≈ 6.25 µg/mL)	> 155	38.7 (≈ 25 µg/mL)	38.7 (≈ 25 µg/mL)	> 155	> 155	> 155	> 155	> 155	> 155	> 155
O=C(OCc1cn(-c2ccc(F)c(Cl)c2)nn1)c1cn(C2CC2)c2cc(N3CCN(Cc4cn(-c5ccc(F)c(Cl)c5)nn4)CC3)c(F)cc2c1=O	5.36	4.16 (≈ 3.12 µg/mL)	8.33 (≈ 6.25 µg/mL)	8.33 (≈ 6.25 µg/mL)	8.33 (≈ 6.25 µg/mL)	33.3 (≈ 25 µg/mL)	–	16.6 (≈ 12.5 µg/mL)	16.6 (≈ 12.5 µg/mL)	16.6 (≈ 12.5 µg/mL)	16.6 (≈ 12.5 µg/mL)	16.6 (≈ 12.5 µg/mL)
O=C(OCc1cn(-c2ccc(Cl)cc2)nn1)c1cn(C2CC2)c2cc(N3CCN(Cc4cn(-c5ccc(Cl)cc5)nn4)CC3)c(F)cc2c1=O	4.73	8.75 (≈ 6.25 µg/mL)	4.37 (≈ 3.12 µg/mL)	35 (≈ 25 µg/mL)	2.19 (≈ 1.56 µg/mL)	35 (≈ 25 µg/mL)	–	4.37 (≈ 3.12 µg/mL)	35 (≈ 25 µg/mL)	8.75 (≈ 6.25 µg/mL)	4.37 (≈ 3.12 µg/mL)	2.19 (≈ 1.56 µg/mL)
O=C(OCc1cn(-c2ccc(Br)cc2)nn1)c1cn(C2CC2)c2cc(N3CCN(Cc4cn(-c5ccc(Br)cc5)nn4)CC3)c(F)cc2c1=O	1.46	3.89 (≈ 3.13 µg/mL)	7.78 (≈ 6.25 µg/mL)	3.89 (≈ 3.13 µg/mL)	1.94 (≈ 1.56 µg/mL)	31.1 (≈ 25 µg/mL)	7.78 (≈ 6.25 µg/mL)	15.6 (≈ 12.5 µg/mL)	15.6 (≈ 12.5 µg/mL)	15.6 (≈ 12.5 µg/mL)	15.6 (≈ 12.5 µg/mL)	15.6 (≈ 12.5 µg/mL)
Cc1cc(C)cc(-n2cc(COC(=O)c3cn(C4CC4)c4cc(N5CCN(Cc6cn(-c7cc(C)cc(C)c7)nn6)CC5)c(F)cc4c3=O)nn2)c1	8.79	8.91 (≈ 6.25 µg/mL)	142 (≈ 100 µg/mL)	142 (≈ 100 µg/mL)	71.2 (≈ 50 µg/mL)	> 142	> 142	> 142	> 142	> 142	> 142	> 142
Cc1ccc(-n2cc(COC(=O)c3cn(C4CC4)c4cc(N5CCN(Cc6cn(-c7ccc(C)cc7Cl)nn6)CC5)c(F)cc4c3=O)nn2)c(Cl)c1	5.85	33.7 (≈ 25 µg/mL)	67.3 (≈ 50 µg/mL)	8.42 (≈ 6.25 µg/mL)	4.21 (≈ 3.13 µg/mL)	67.3 (≈ 50 µg/mL)	> 135	67.3 (≈ 50 µg/mL)	67.3 (≈ 50 µg/mL)	16.8 (≈ 12.5 µg/mL)	16.8 (≈ 12.5 µg/mL)	33.7 (≈ 25 µg/mL)
O=C(OCc1cn(-c2ccccc2Cl)nn1)c1cn(C2CC2)c2cc(N3CCN(Cc4cn(-c5ccccc5Cl)nn4)CC3)c(F)cc2c1=O	5.85	2.19 (≈ 1.56 µg/mL)	2.19 (≈ 1.56 µg/mL)	1.09 (≈ 0.779 µg/mL)	8.75 (≈ 6.25 µg/mL)	35 (≈ 25 µg/mL)	140 (≈ 100 µg/mL)	17.5 (≈ 12.5 µg/mL)	35 (≈ 25 µg/mL)	35 (≈ 25 µg/mL)	8.75 (≈ 6.25 µg/mL)	35 (≈ 25 µg/mL)
CCCCCc1ccc(-n2cc(COC(=O)c3cn(C4CC4)c4cc(N5CCN(Cc6cn(-c7ccc(CCCCC)cc7)nn6)CC5)c(F)cc4c3=O)nn2)cc1	5.32	63.6 (≈ 50 µg/mL)	> 127	127 (≈ 100 µg/mL)	63.6 (≈ 50 µg/mL)	> 127	> 127	> 127	> 127	31.8 (≈ 25 µg/mL)	> 127	> 127
O=C(OCc1cn(-c2ccc(F)cc2Cl)nn1)c1cn(C2CC2)c2cc(N3CCN(Cc4cn(-c5ccc(F)cc5Cl)nn4)CC3)c(F)cc2c1=O	29.8	33.3 (≈ 25 µg/mL)	16.6 (≈ 12.5 µg/mL)	4.16 (≈ 3.12 µg/mL)	2.08 (≈ 1.56 µg/mL)	66.6 (≈ 50 µg/mL)	–	33.3 (≈ 25 µg/mL)	33.3 (≈ 25 µg/mL)	16.6 (≈ 12.5 µg/mL)	16.6 (≈ 12.5 µg/mL)	16.6 (≈ 12.5 µg/mL)
O=C(O)c1cn(C2CC2)c2cc(N3CCNCC3)c(F)cc2c1=O [CIPROFLOXACIN]	5.23	9.43 (≈ 3.12 µg/mL)	–	9.43 (≈ 3.12 µg/mL)	–	–	–	–	–	–	–	–
O=C(OCc1cn(-c2ccc(Cl)cc2Cl)nn1)c1cn(C2CC2)c2cc(N3CCN(Cc4cn(-c5ccc(Cl)cc5Cl)nn4)CC3)c(F)cc2c1=O	18.2	7.98 (≈ 6.25 µg/mL)	> 128	3.99 (≈ 3.13 µg/mL)	3.99 (≈ 3.13 µg/mL)	7.98 (≈ 6.25 µg/mL)	7.98 (≈ 6.25 µg/mL)	15.9 (≈ 12.5 µg/mL)	15.9 (≈ 12.5 µg/mL)	7.98 (≈ 6.25 µg/mL)	15.9 (≈ 12.5 µg/mL)	15.9 (≈ 12.5 µg/mL)
COc1ccccc1-n1cc(COC(=O)c2cn(C3CC3)c3cc(N4CCN(Cc5cn(-c6ccccc6OC)nn5)CC4)c(F)cc3c2=O)nn1	7.65	4.43 (≈ 3.13 µg/mL)	8.86 (≈ 6.25 µg/mL)	35.4 (≈ 25 µg/mL)	35.4 (≈ 25 µg/mL)	70.8 (≈ 50 µg/mL)	35.4 (≈ 25 µg/mL)	4.43 (≈ 3.13 µg/mL)	4.43 (≈ 3.13 µg/mL)	35.4 (≈ 25 µg/mL)	17.7 (≈ 12.5 µg/mL)	35.4 (≈ 25 µg/mL)
CC(=O)c1ccc(-n2cc(COC(=O)c3cn(C4CC4)c4cc(N5CCN(Cc6cn(-c7ccc(C(C)=O)cc7)nn6)CC5)c(F)cc4c3=O)nn2)cc1	8.05	2.14 (≈ 1.56 µg/mL)	2.14 (≈ 1.56 µg/mL)	2.14 (≈ 1.56 µg/mL)	2.14 (≈ 1.56 µg/mL)	8.56 (≈ 6.25 µg/mL)	–	8.56 (≈ 6.25 µg/mL)	17.1 (≈ 12.5 µg/mL)	8.56 (≈ 6.25 µg/mL)	4.28 (≈ 3.12 µg/mL)	4.28 (≈ 3.12 µg/mL)
O=C(OCc1cn(-c2cccc(Cl)c2Cl)nn1)c1cn(C2CC2)c2cc(N3CCN(Cc4cn(-c5cccc(Cl)c5Cl)nn4)CC3)c(F)cc2c1=O	6.58	7.98 (≈ 6.25 µg/mL)	7.98 (≈ 6.25 µg/mL)	3.99 (≈ 3.13 µg/mL)	3.99 (≈ 3.13 µg/mL)	31.9 (≈ 25 µg/mL)	31.9 (≈ 25 µg/mL)	15.9 (≈ 12.5 µg/mL)	15.9 (≈ 12.5 µg/mL)	15.9 (≈ 12.5 µg/mL)	7.98 (≈ 6.25 µg/mL)	15.9 (≈ 12.5 µg/mL)
O=C(OCc1cn(-c2ccc([N+](=O)[O-])cc2)nn1)c1cn(C2CC2)c2cc(N3CCN(Cc4cn(-c5ccc([N+](=O)[O-])cc5)nn4)CC3)c(F)cc2c1=O	5.61	4.25 (≈ 3.13 µg/mL)	4.25 (≈ 3.13 µg/mL)	1.06 (≈ 0.78 µg/mL)	4.25 (≈ 3.13 µg/mL)	17 (≈ 12.5 µg/mL)	–	17 (≈ 12.5 µg/mL)	17 (≈ 12.5 µg/mL)	17 (≈ 12.5 µg/mL)	8.5 (≈ 6.25 µg/mL)	8.5 (≈ 6.25 µg/mL)
